The text below walks through data of patent US20070149408A1, “METHOD FOR REDUCING NITROSAMINES IN TOBACCO” (UNIVERSITY OF KENTUCKY RESEARCH FOUNDATION, priority 2005, published 2007).

Assay [1] has as its system whole tobacco leaf. Kind of assay: TSNA in cured tobacco, ferulic acid added to the smoke during fire curing (Example 6). The conditions noted are these: ferulic acid in wood smoke, versus untreated (Table 6). The source says: In a conventional dark fire tobacco barn, wood lumber was laid on the floor of the barn and sawdust was spread on top of the wood. The lumber was set on fire and the sawdust smoldered and generated wood smoke. Ferulic acid, solid granular, from a conventional source, was sprinkled over the top of the sawdust at the start of the fire curing process and was applied in an amount of one pound per acre of tobacco in the barn, about 5000 tobacco plants. The fire curing started one or two days after the tobacco was harvested and hung in the barn. The ferulic acid lasted about one week on the sawdust during the fire curing.
The fire curing was conducted for a total of 40 days.
After curing, random leaves were collected from the treated tobacco and from the untreated tobacco. Both treated and untreated tobacco were of the same variety and came from two different barns. The untreated tobacco came from a different barn but was fire cured in the same manner as the treated tobacco except for the ferulic acid treatment.

Assay [2] concerns whole tobacco leaf. Briefly: Total TSNA in cured tobacco, ferulic acid, ethanol and surfactant sprayed two days before harvest (Example 4). The conditions noted are these: ferulic acid + ethanol + DE FAC 820, versus untreated (Table 4). The method, then:
Tobacco plants were treated by spraying them in the field with an aqueous solution comprising 0.25% wt. by vol. of ferulic acid, 5 gallons ethanol (95%), 250 gallons water and 0.25% by vol. of a non-ionic surfactant (DE FAC 820). This gave a 2% ethanol solution. Fifty (50) gallons of aqueous solution was applied per acre for the treated plants.
Treated and non-treated tobacco was harvested and cured in a conventional dark fire tobacco barn with manual vents for aeration for 6 weeks, one week of natural ventilation followed by five weeks of wood fire curing in a conventional manner. The curing was conducted in a conventional curing barn as is typically found in the dark tobacco production regions of Kentucky and Tennessee. Both the treated and untreated tobacco were the same variety and harvested at the same time.
Random leaves were removed from the cured treated and cured untreated tobacco and TSNA was measured in accordance with Example 1.

With `COc1cc(C=CC(=O)O)ccc1O` [ferulic acid, 4-hydroxy-3-methoxy cinnamic acid], the “reduction in TSNA” value is on record as 35% in the assay with whole tobacco leaf [1] and 85% with whole tobacco leaf [2].
